The assay concerns HMEL-BRAF^V600E melanocytes. Put plainly: In vivo functional genetic screen and secondary validation: kinase-transduced HMEL cells implanted in nude mice. Further details: species or system human. From the text:
A ‘cancer-kinase’ library was constructed containing sequence-verified ORFs in a lentiviral vector for 110 of the 120 kinases reported to sustain somatic driver mutations in diverse human cancers. This library was pooled and introduced into a human HMEL-BRAF^V600E melanocyte model system engineered with BRAF^V600E and TERT as well as p53DD and CDK4-R24C to inactivate the […] pathways, respectively. The HMEL-BRAF^V600E melanocyte profile, while representing the most common clinically-definable genetic profile in human melanoma, is insufficient to drive efficient melanoma formation following orthotopic transplantation in the skin (penetrance of 10% and latency of 26 weeks). In contrast, 40% of HMEL-BRAF^V600E melanocytes transduced with the cancer kinase pools developed tumors with an average latency of 13 weeks (range 10-18 weeks).
In vivo functional genetic screens: Lentivirus were prepared by co-transfecting 293T cells with individual vector backbones and standard virus packaging systems for subsequent collection of viral supernatants. Viral supernatants were then pooled randomly to generate 8 pools of high-titer lentiviral stocks. HMEL cells were transduced with either GFP control lentivirus or each representative lentiviral pool in the presence of 8 ug/ml polybrene (Company). […]

“JNK2 WT: wild type MAPK9/JNK2 kinase ORF expressed in HMEL cells”: the Tumorigenicity in vivo result (WT or mutant kinase expressed individually) is “YES”. Besides, where the note is “secondary validation, kinase transduced individually into HMEL-BRAF^V600E melanocytes”, the tumor penetrance is given as 50%.

For the origin of these results see patent US20130040853A1, “Context Specific Genetic Screen Platform to Aid in Gene Discovery and Target Validation” (Dana-Farber Cancer Institute Inc., priority 2010, published 2013).
